# Measured values from paper PMC6934184, “Selective DNA-PKcs inhibition extends the therapeutic index of localized radiotherapy and chemotherapy” (The Journal of Clinical Investigation, 2019).
# Molecular target: T1, PRKACA (PKA) (Homo sapiens, UniProt P17612)
# T1 construct: purchased Thermo Fisher Scientific (Life Technologies) SelectScreen
# Assay: SelectScreen Z'LYTE
# Format: biochemical
# Summary of the method: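 SelectScreen broad panel; activity (Z'LYTE, Adapta) plus binding formats. ATP: Km app for CSF1R Z'LYTE; 10 for CAMK1 Adapta. Readout = % per kinase.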
smiles,measurement,value
CN(C(=O)CN1CCOCC1)c1ccc2sc3c(-c4cccc5c(=O)cc(N6CC7CCC(C6)O7)oc45)cccc3c2c1 [NU5455],inhibition at 1 µM,14%
